Measurements reported in US11918552B2, “N-acetylcysteine for use as antibacterial agent” (priority 2016, dated 2024).
Converted amounts (≈) assume the structure as drawn.

How the values were obtained:
S. maltophilia isolates [1] = assay: Effect of sub-MIC concentrations on growth curves; format: cell-based, Stenotrophomonas maltophilia; conditions: sub-MIC concentrations (4 and 8 mg/ml), all 4 tested S. maltophilia isolates
BCC isolates [2] = assay: Effect of sub-MIC concentrations on growth curves; format: cell-based, Burkholderia cepacia complex; conditions: sub-MIC concentrations (4 and 8 mg/ml), all 4 tested BCC isolates
BCC biofilm = assay: Inhibition of biofilm formation, MBEC High-Throughput Assay, viable cell count; format: cell-based, Burkholderia cepacia complex; conditions: NAC 4, 8 and 16 mg/ml, two BCC isolates
S. maltophilia biofilm = assay: as above; format: cell-based, Stenotrophomonas maltophilia; conditions: NAC 4, 8 and 16 mg/ml, all S. maltophilia isolates
[3] = test system: BCC (B. cepacia, B. cenocepacia, B. multivorans, B. metallica, B. seminalis, B. stabilis) clinical isolates; assay: organism not typed; format: cell-based, Burkholderia cepacia complex
[4] = test system: S. maltophilia clinical isolates; assay: MIC by broth microdilution; format: cell-based; conditions: Stenotrophomonas maltophilia
BCC isolates [5] = assay: Time-kill assay; format: cell-based, Burkholderia cepacia complex; conditions: NAC 32 mg/ml
S. maltophilia isolates [6] = assay: Time-kill assay; format: cell-based, Stenotrophomonas maltophilia; conditions: NAC 32 mg/ml

## CC(=O)N[C@@H](CS)C(=O)O [NAC, N-acetylcysteine]
S. maltophilia isolates [1]
  Effect on growth: slowed down the growth
BCC isolates [2]
  Effect on growth: slowed down the growth
BCC biofilm
  Inhibition of biofilm formation: inhibit biofilm formation in a dose-dependent fashion
S. maltophilia biofilm
  Inhibition of biofilm formation: inhibit biofilm formation in a dose-dependent fashion
[3]; remaining BCC isolates (of 16)
  MIC: 32 mg/mL (≈ 196 mM)
[3]; seven of 16 BCC clinical isolates
  MIC: 16 mg/mL (≈ 98 mM)
[4]; nine of 16 S. maltophilia clinical isolates
  MIC: 16 mg/mL (≈ 98 mM)
[4]; remaining S. maltophilia isolates (of 16)
  MIC: 32 mg/mL (≈ 196 mM)
BCC isolates [5]; one BCC isolate
  Reduction of bacterial inoculum (bactericidal): more than 3 logs
BCC isolates [5]; remaining BCC isolates
  Reduction of bacterial inoculum: < 1 log CFU/ml
S. maltophilia isolates [6]; one S. maltophilia isolate
  Reduction of bacterial inoculum (bactericidal): more than 3 logs
S. maltophilia isolates [6]; remaining S. maltophilia isolates
  Reduction of bacterial inoculum: < 1 log CFU/ml
